Assay results taken from US20090298903A1, “USE OF TETRAMIC ACID DERIVATIVES FOR INSECT CONTROL” (priority 2006, published 2009).

Columns and labels:
Type in all cases: in vivo
Ceutorhynchus napi = assay: Example 26-A: oilseed rape against Ceutorhynchus napi; details: 55 d after treatment, larvae, Deltamethrin (25 EC) 5, (I-4) (+ 0.2% rapeseed oil methyl ester) 72, Thiacloprid (OD 240) 72, Lambda-cyhalothrin 5 g a.s./ha
Description: Plots approx. 25 m^2 in size which are planted with oilseed rape cv. “Artus” are treated, in four replications, against Ceutorhynchus napi. The application is carried out with a motor-operated knapsack sprayer. Here, the active substance Example (I-4), in a tank mix with 0.2% a.s. rapeseed oil methyl ester (500 EW) and the commercial standards Deltamethrin (25 EC), lambda-cyhalothrin (S100) and Thiacloprid (OD 240), is tested at the specified application rates. The water application rate is 250 l/ha.
The test is evaluated 55 days after the treatment by scoring the destruction rate of the larvae on the plants.

[1] = system: Frankliniella occidentalis; assay: Example 2: bell peppers against Frankliniella occidentalis; details: Acrinathrin 60, (I-9) 54, (I-4) 60 g a.s./ha, (I-9)/(I-4) 240 SC + 0.1% rapeseed oil methyl ester
Description: Plots 10 m^2 in size which are planted with bell peppers cv. “Zingaro” are treated, in three replications, against Frankliniella occidentalis. The application is effected with a knapsack sprayer which is operated with pressurized air. Here, the active substances Example (I-9) (240 SC) and Example (I-4) (240 SC), in the form of a tank mix together with 0.1% a.s. rapeseed oil methyl ester (500 EW) and the commercial standard acrinathrin (075 EW), are applied at the specified application rates. Two applications are carried out at an interval of 24 days, with a water application rate of 1000 l/ha.
The test is evaluated 17 and 21 days after treatment 1 and 4 days after treatment 2 by scoring the destruction of the animals (nymphs) on the flowers.

Empoasca biguttula = assay: Example 12: cotton against Empoasca biguttula
Description: Plots 10 m^2 in size which are planted with cotton are treated, in three replications, against Empoasca biguttula. The application is carried out with a knapsack sprayer operated with pressurized air. Here, the active substance Example (I-4) (240 SC), in a tank mix with 0.2% a.s. rapeseed oil methyl ester (500 EW), is tested against the commercial standards Imidacloprid (SL 100) and Buprofezin (WP50) at the specified application rates. Two applications are carried out at an interval of 7 days. The water application rate is 750 l/ha.
The test is evaluated 3, 7, 14 and 21 days after the second treatment by counting the live animals. Thereafter, the efficacy is calculated in percent, using the formula of Henderson and Tilton.

Liriomyza sp. = assay: Example 18: beans against Liriomyza sp.; details: for Efficacy (% Abbott) 2 d: 2 d after first treatment, 10 leaves, Cyromazine (WP 75) 130, (I-4) (150 OD) 100, Abamectin (EC 018) 14.4 g a.s./ha, three applications, 7-day intervals; for Efficacy (% Abbott) 7 d: 7 d after first treatment; for Efficacy (% Abbott) 7 d / Efficacy (% Abbott) 12 d / Efficacy (% Abbott) 18 d / Efficacy (% Abbott) 20 d / Efficacy (% Abbott) 25 d: Cyromazine 130, (I-4) 100, Abamectin 14.4 g a.s./ha; for Efficacy (% Abbott) 12 d: 12 d after first treatment; for Efficacy (% Abbott) 18 d: 18 d after first treatment; for Efficacy (% Abbott) 20 d: 20 d after first treatment; for Efficacy (% Abbott) 25 d: 25 d after first treatment
Description: Plots approx. 10 m^2 in size which are planted with beans cv. “Lago Azul” are treated, in three replications, against Liriomyza sp. Here, the active substance Example (I-4) (150 OD) and the commercial standards Cyromazine (WP 75) and Abamectin (EC 018) are applied at the specified application rates, using a knapsack sprayer which is operated with pressurized gas. The water application rate is 400 and 500 l/ha., respectively. Three applications are carried out at intervals of in each case 7 days.
The destruction rate in percent is determined on in each case 10 leaves. 2, 7, 12, 18, 20 and 25 days after the first treatment, the following results are obtained: […]

Scirtothrips dorsalis = assay: Example 10: tea plants against Scirtothrips dorsalis; details: 7 d after treatment, nymphs, Ethiprole (SC10) 0.005, (I-4) (100 OD) 0.01, Imidacloprid (50 WG) 0.005 % a.s.
Description: Plots approx. 5 m^2 in size which are planted with tea plants cv. “Yabukita” which are approximately 18 years old are treated, in three replications, against Scirtothrips dorsalis. Here, the active substance Example (I-4) (100 OD) is tested, at the specified application rates, against the commercial standards Ethiprole (SC10 flowable) and Imidacloprid (50 WG). The application is carried out with a sprayer which is operated with pressurized air. The water application rate is 4500 l/ha. The test is evaluated 7 days after the treatment by scoring the destruction rate of the nymphs and the plants.

Ceratitis capitata = assay: Example 20: peach trees against Ceratitis capitata; details: animals on fruits
Description: Peach trees cv. “Oom Sarel” which are approximately 10 years old are treated, in three replications, against Ceratitis capitata. The application is carried out with a high-pressure sprayer or a knapsack sprayer which is operated with pressurized air. Here, the active substance Example (I-4) (150 OD) and the commercial standard Fenthion (500 EC) are tested at the specified application rates. The water application rate is 2500 l/ha. Three applications are carried out at an interval of 7 and 19 days, respectively.
The test is evaluated 9 and 16 days after treatment 3 by scoring the destruction rate of the animals on the fruits with the aid of the Abbott formula.

Dacus ciliatus = assay: Example 22A: bottle gourds against Dacus ciliatus
Description: Plots approx. 10 m^2 in size which are planted with bottle gourds cv. “Waltham” are treated, in three replications, against Dacus ciliatus. The application is carried out with a motor-operated knapsack sprayer. Here, the active substance Example (I-4) (150 OD) and the commercial standard Fenthion (500 EC) are tested at the specified application rates. Three applications are carried out at in each case an interval of 7 days. The water application rate is approx. 500 l/ha.
The test is evaluated 8, 14 and 21 days after treatment 1 by scoring the infestation of the fruits.

[2] = system: olive fruit fly (Dacus oleae); assay: Example 22B: laboratory experiment, olives against olive fruit fly; details: olives treated three days after oviposition; Imidacloprid (200 SL) 0.01 %, (I-4) (100 OD) 0.02 %, Fenthion (500 EC) 0.05 %; untreated 84.4
Description: In a laboratory experiment, 40 olives are treated, in four replications, against the olive fruit fly (Dacus oleae) three days after oviposition. Here, the active substance (I-4) (100 OD) and the commercial standards Fenthion (500 EC) and Imidacloprid (200 SL) are tested at the specified application rates.
The test is evaluated 14 days after oviposition by counting the number of feeding tunnels (larval development completed), while the absence of such feeding tunnels indicates the efficacy against the larvae.

Idioscopus clypealis = assay: Example 14: mango tree against Idioscopus clypealis; details: nymphs on infructescences
Description: A mango tree which is approximately 14 years old is treated, in three replications, against Idioscopus clypealis. The application is carried out with a high-pressure sprayer. Here, the active substance Example (I-4) (240 SC), in a tank mix with 0.2% a.s. rapeseed oil methyl ester (500 EW) and the commercial standards Imidacloprid (100 SL) and Pymetrozine (WP 25), is tested at the specified application rates. The amount of spray mixture is 10 l/tree. Five treatments are carried out at intervals of 7, 14, 21 and 28 days.
The test is evaluated in each case 7 days after treatments 3 to 5 by scoring the destruction rate of the nymphs on the infructescences.

[3] = system: Frankliniella occidentalis; assay: Example 5: aubergines against Frankliniella occidentalis; details: mixed populations on leaves
Description: Plots 6 m^2 in size which are planted with aubergines cv. “Soraya” are treated, in three replications, against Frankliniella occidentalis. The application is effected with a motor-operated knapsack sprayer. Here, the active substances Example (I-4) (240 SC) and Example (I-9) (240 SC), in a tank mix together with 0.1% a.s. rapeseed oil methyl ester (500 EW) and the commercial standard Spinosad (480 SC), are tested at the specified application rates. The water application rate is 1500 l/ha.
The test is evaluated 25, 32 and 39 days after the treatment by scoring the destruction rate of the mixed populations on the leaves.

[4] = Imidacloprid 0.00025 %, (I-4) 0.0016 %, Pymetrozine 0.002 %

**Q.** Which “Efficacy (% Abbott) 55 d” value (Ceutorhynchus napi) does the source give for CC1(C)[C@H](C(=O)O[C@H](C#N)c2cccc(Oc3ccccc3)c2)[C@@H]1/C=C(\Cl)C(F)(F)F (racemic) [Lambda-cyhalothrin, lambda-cyhalothrin] here?
**A.** 89.5 % Abbott

**Q.** With CC1(C)[C@H](C(=O)O[C@H](C#N)c2cccc(Oc3ccccc3)c2)[C@@H]1/C=C\C(=O)OC(C(F)(F)F)C(F)(F)F [Acrinathrin, acrinathrin] as the molecule, how does the “Efficacy (% Abbott) 4 d (2)” value ([1]; 4 d after treatment 2, nymphs on flowers) read?
**A.** 87 % Abbott

**Q.** And the “Efficacy (% Abbott) 17 d (1)” value ([1]; 17 d after treatment 1, nymphs on flowers)?
**A.** 98 % Abbott

**Q.** What about the “Efficacy (% Abbott) 21 d (1)” value ([1]; 21 d after treatment 1, nymphs on flowers) of the same molecule?
**A.** 91 % Abbott

**Q.** With CC(C)N1C(=O)N(c2ccccc2)CS/C1=N\C(C)(C)C [Buprofezin] as the molecule, how does the “Efficacy (% H + T) 3 d” value (Empoasca biguttula; 3 d after second treatment, Henderson and Tilton, Imidacloprid (SL 100) 30, (I-4) (240 SC + 0.2% rapeseed oil methyl ester) 24, Buprofezin (WP50) 50 g a.s./ha) read?
**A.** 96.5 % H + T

**Q.** And the “Efficacy (% H + T) 7 d” value (Empoasca biguttula; 7 d after second treatment, Imidacloprid 30, (I-4) 24, Buprofezin 50 g a.s./ha)?
**A.** 94.7 % H + T

**Q.** What about the “Efficacy (% H + T) 14 d” value (Empoasca biguttula; 14 d after second treatment, Imidacloprid 30, (I-4) 24, Buprofezin 50 g a.s./ha) of the same molecule?
**A.** 90.1 % H + T

**Q.** What about the “Efficacy (% H + T) 21 d” value (Empoasca biguttula; 21 d after second treatment, Imidacloprid 30, (I-4) 24, Buprofezin 50 g a.s./ha) of the same molecule?
**A.** 67.1 % H + T

**Q.** Nc1nc(N)nc(NC2CC2)n1 [Cyromazine] was tested. Which “Efficacy (% Abbott) 2 d” value (Liriomyza sp.) did it give?
**A.** 44 % Abbott

**Q.** What about the “Efficacy (% Abbott) 7 d” value (Liriomyza sp.) of the same molecule?
**A.** 61 % Abbott

**Q.** What about the “Efficacy (% Abbott) 12 d” value (Liriomyza sp.) of the same molecule?
**A.** 42 % Abbott

**Q.** What about the “Efficacy (% Abbott) 18 d” value (Liriomyza sp.) of the same molecule?
**A.** 54 % Abbott

**Q.** What about the “Efficacy (% Abbott) 20 d” value (Liriomyza sp.) of the same molecule?
**A.** 32 % Abbott

**Q.** And the “Efficacy (% Abbott) 25 d” value (Liriomyza sp.)?
**A.** 0 % Abbott

**Q.** How did the “Efficacy (% Abbott) 7 d” value (Scirtothrips dorsalis) turn out when CC[S+]([O-])c1c(C#N)nn(-c2c(Cl)cc(C(F)(F)F)cc2Cl)c1N (stereo not drawn) [Ethiprole] was run?
**A.** 100 % Abbott

**Q.** With COP(=S)(OC)Oc1ccc(SC)c(C)c1 [Fenthion] as the molecule, how does the “Efficacy (% Abbott) 16 d after treatment 3” value (Ceratitis capitata; Fenthion 1700, (I-4) 100 g a.s./ha) read?
**A.** 88.9 % Abbott

**Q.** And the “Efficacy (% Abbott) 9 d after treatment 3” value (Ceratitis capitata; Fenthion (500 EC) 1700, (I-4) (150 OD) 100 g a.s./ha)?
**A.** 86.7 % Abbott

**Q.** And the “Efficacy (% Abbott) 8 d” value (Dacus ciliatus; 8 d after treatment 1, infestation of fruits, Fenthion (500 EC) 300, (I-4) (150 OD) 200 g a.s./ha, three applications, 7-day intervals)?
**A.** 59.6 % Abbott

**Q.** What about the “Efficacy (% Abbott) 14 d” value (Dacus ciliatus; 14 d after treatment 1, Fenthion 300, (I-4) 200 g a.s./ha) of the same molecule?
**A.** 48.9 % Abbott

**Q.** What about the “Efficacy (% Abbott) 21 d” value (Dacus ciliatus; 21 d after treatment 1, Fenthion 300, (I-4) 200 g a.s./ha) of the same molecule?
**A.** 60.3 % Abbott

**Q.** And the “Number of feeding tunnels (%) 14 days after oviposition” value [2]?
**A.** 1.9%

**Q.** How did the “Efficacy (% Abbott) 7 days after treatment 4” value (Idioscopus clypealis; [4]) turn out when CC1=NNC(=O)N(/N=C/c2cccnc2)C1 [Pymetrozine] was run?
**A.** 98.6 % Abbott

**Q.** And the “Efficacy (% Abbott) 7 days after treatment 5” value (Idioscopus clypealis; [4])?
**A.** 94.8 % Abbott

**Q.** And the “Efficacy (% Abbott) 7 days after treatment 3” value (Idioscopus clypealis; Imidacloprid (100 SL) 0.00025 %, (I-4) (240 SC + 0.2% rapeseed oil methyl ester) 0.0016 %, Pymetrozine (WP 25) 0.002 %)?
**A.** 70.9 % Abbott

**Q.** Which “Efficacy (% Abbott) 2 d” value (Liriomyza sp.) does the source give for Abamectin here?
**A.** 36 % Abbott

**Q.** What about the “Efficacy (% Abbott) 7 d” value (Liriomyza sp.) of the same molecule?
**A.** 80 % Abbott

**Q.** What about the “Efficacy (% Abbott) 12 d” value (Liriomyza sp.) of the same molecule?
**A.** 52 % Abbott

**Q.** And the “Efficacy (% Abbott) 18 d” value (Liriomyza sp.)?
**A.** 70 % Abbott

**Q.** What about the “Efficacy (% Abbott) 20 d” value (Liriomyza sp.) of the same molecule?
**A.** 43 % Abbott

**Q.** What about the “Efficacy (% Abbott) 25 d” value (Liriomyza sp.) of the same molecule?
**A.** 60 % Abbott

**Q.** With Spinosad as the molecule, how does the “Efficacy (% Abbott) 25 d” value ([3]; 25 d after treatment, Spinosad (480 SC) 0.012, (I-9) 0.0054, (I-4) 0.012 % a.s., 240 SC + 0.1% rapeseed oil methyl ester) read?
**A.** 94.7 % Abbott

**Q.** And the “Efficacy (% Abbott) 32 d” value ([3]; 32 d after treatment, Spinosad 0.012, (I-9) 0.0054, (I-4) 0.012 % a.s.)?
**A.** 89.3 % Abbott

**Q.** What about the “Efficacy (% Abbott) 39 d” value ([3]; 39 d after treatment, Spinosad 0.012, (I-9) 0.0054, (I-4) 0.012 % a.s.) of the same molecule?
**A.** 95.3 % Abbott
